Results reported in ChEMBL document CHEMBL5537177, “Discovery of Potent Antimalarial Type II Kinase Inhibitors with Selectivity over Human Kinases” (J Med Chem, 2024).

How the values were obtained:
Plasmodium falciparum [1] = assay: Antiplasmodial activity against multidrug-resistant Plasmodium falciparum Dd2 at ring stage infected in A+ erythrocytes assessed as parasite growth reduction incubated for 72 hrs by SYBR Green I dye based analysis; format: functional, organism-based; details: Dd2, Erythrocyte
Plasmodium falciparum [2] = assay: Antiplasmodial activity against drug-sensitive Plasmodium falciparum 3D7 at ring stage infected in A+ erythrocytes assessed as parasite growth reduction incubated for 72 hrs by SYBR Green I dye based analysis; format: functional, organism-based; details: 3D7, Erythrocyte
Plasmodium falciparum [3] = assay: Resistance index, ratio of EC50 for multidrug-resistant Plasmodium falciparum Dd2 at ring stage infected in A+ erythrocytes to EC50 for drug-sensitive Plasmodium falciparum 3D7 at ring stage infected in A+ erythrocytes; format: organism-based; details: human
HepG2 = assay: Cytotoxicity against human HepG2 cells assessed as reduction in cell viability incubated for 48 hrs by MTS assay; format: toxicity, cell-based; details: hepg2
[4] = Selectivity index, ratio of EC50 for human HepG2 cells to EC50 for multidrug-resistant Plasmodium falciparum Dd2 at ring stage infected in A+ erythrocytes; format: toxicity, cell-based; details: read-out: Ratio EC50
MCF7 = assay: Cytotoxicity against human MCF7 cells assessed as reduction in cell viability incubated for 48 hrs by MTS assay; format: toxicity, cell-based; details: mcf7
[5] = Selectivity index, ratio of EC50 for human MCF7 cells to EC50 for multidrug-resistant Plasmodium falciparum Dd2 at ring stage infected in A+ erythrocytes; format: toxicity, cell-based; details: read-out: Ratio EC50
[6] = Metabolic stability in mouse liver microsomes assessed as half life; format: ADME, Liver cells
[7] = Metabolic stability in mouse liver microsomes assessed as intrinsic clearance; format: ADME, Liver cells
Plasmodium falciparum [8] = assay: Antimalarial activity against Plasmodium falciparum harboring AcAS A597V mutation assessed as reduction in parasitemia incubated for 72 hrs by SYBR green I dye based analysis; format: functional, organism-based
Plasmodium falciparum [9] = assay: Antimalarial activity against Plasmodium falciparum harboring CARL I1139K mutation assessed as reduction in parasitemia incubated for 72 hrs by SYBR green I dye based analysis; format: functional, organism-based
Plasmodium falciparum [10] = assay: Antimalarial activity against Plasmodium falciparum harboring PI4K S1320L mutation assessed as reduction in parasitemia incubated for 72 hrs by SYBR green I dye based analysis; format: functional, organism-based
Plasmodium falciparum [11] = assay: microbe, parasite or virus in culture; details: Dd2, 72 h
Description: Antimalarial activity against wild-type Plasmodium falciparum Dd2 assessed as reduction in parasitemia incubated for 72 hrs by SYBR green I dye based analysis

Row | SMILES | EC50 (Plasmodium falciparum [1]) [nM] | EC50 (Plasmodium falciparum [2]) [nM] | Ratio EC50 (Plasmodium falciparum [3]) | EC50 (HepG2) [nM] | selectivity ratio [4] | EC50 (MCF7) [nM] | selectivity ratio [5] | t1/2 [6] [min] | intrinsic clearance [7] [µL/min/mg] | EC50 (Plasmodium falciparum [8]) [nM] | EC50 (Plasmodium falciparum [9]) [nM] | EC50 (Plasmodium falciparum [10]) [nM] | EC50 (Plasmodium falciparum [11]) [nM]
1 | CCN1CCN(Cc2ccc(NC(=O)c3cc(NC(=O)c4cncc(-c5cccs5)c4)cc(C(F)(F)F)c3)cc2C(F)(F)F)CC1 | 31 | 35 | 0.9 | 2850 | 92 | 3540 | 114 | 41.4 | 17 |  |  |  | 
2 | CCN1CCN(Cc2ccc(NC(=O)c3cc(Cl)cc(NC(=O)c4cncc(-c5ccccc5)c4)c3)cc2C(F)(F)F)CC1 | 50 | 41 | 1.2 | 3290 | 66 | 4350 | 87 | 50.2 | 14 |  |  |  | 
3 | CCN1CCN(Cc2ccc(NC(=O)c3cc(NC(=O)c4cncc(-c5cccs5)c4)c(C)cc3F)cc2C(F)(F)F)CC1 | 1580 | 1460 | 1.1 | 4050 | 2.6 | 6910 | 4.4 |  |  |  |  |  | 
4 | CCN1CCN(Cc2ccc(NC(=O)c3cc(Cl)cc(NC(=O)c4cnc(N)nc4)c3)cc2C(F)(F)F)CC1 | 709 | 378 | 1.9 | 19200 | 27 | 13700 | 19 |  |  |  |  |  | 
5 | CCN1CCN(Cc2ccc(NC(=O)c3cc(Cl)cc(NC(=O)c4cncc(-c5ccco5)c4)c3)cc2C(F)(F)F)CC1 | 51 | 58 | 0.9 | 5410 | 106 | 6490 | 127 | 58.1 | 12 |  |  |  | 
6 | O=C(Nc1ccnc(N2CCOCC2)c1)c1cc(Cl)cc(NC(=O)c2cncc(-c3cccs3)c2)c1 | 739 | 700 | 1.1 | > 20000 | > 27 | 14700 | 20 |  |  |  |  |  | 
7 | CCN1CCN(Cc2ccc(NC(=O)c3ccnc(NC(=O)c4cncc(-c5cccs5)c4)c3)cc2C(F)(F)F)CC1 | 579 | 356 | 1.6 | 3030 | 5.2 | 4610 | 8 |  |  |  |  |  | 
8 | CCN1CCN(Cc2ccc(NC(=O)c3cc(F)cc(NC(=O)c4cncc(-c5cccs5)c4)c3)cc2C(F)(F)F)CC1 | 135 | 113 | 1.2 | 6690 | 50 | 10200 | 76 | 32.4 | 21 |  |  |  | 
9 | CCN1CCN(Cc2ccc(NC(=O)c3cc(Br)cc(NC(=O)c4cncc(-c5cccs5)c4)c3)cc2C(F)(F)F)CC1 | 61 | 39 | 1.6 | 4380 | 72 | 6590 | 108 | 40.7 | 17 |  |  |  | 
10 | CCN1CCN(Cc2ccc(NC(=O)c3cc(Cl)cc(C(=O)Nc4cncc(-c5cccs5)c4)c3)cc2C(F)(F)F)CC1 | 109 | 82 | 1.3 | 4240 | 39 | 5360 | 49 |  |  |  |  |  | 
11 | CCN1CCN(Cc2ccc(NC(=O)c3ccc(F)c(NC(=O)c4cncc(-c5cccs5)c4)c3)cc2C(F)(F)F)CC1 | 1320 | 763 | 1.7 | 3170 | 2.4 | 5100 | 3.9 |  |  |  |  |  | 
12 | O=C(Nc1cccc(C(F)(F)F)c1)c1cc(Cl)cc(NC(=O)c2cncc(-c3cccs3)c2)c1 | 1110 | 541 | 2.1 | > 20000 | > 18 | > 20000 | > 18 |  |  |  |  |  | 
13 | CCN1CCN(Cc2ccc(NC(=O)c3cc(Cl)cc(NC(=O)c4cncnc4)c3)cc2C(F)(F)F)CC1 | 520 | 395 | 1.3 | 17300 | 33 | 15300 | 29 |  |  |  |  |  | 
14 | CCN1CCN(Cc2ccc(NC(=O)c3cc(Cl)cc(NC(=O)c4cccnc4)c3)cc2C(F)(F)F)CC1 | 147 | 127 | 1.2 | 10400 | 71 | 11000 | 75 | 15.1 | 46 |  |  |  | 
15 | CCN1CCN(Cc2ccc(NC(=O)c3cc(Cl)cc(NC(=O)c4ccccc4)c3)cc2C(F)(F)F)CC1 | 493 | 361 | 1.4 | 7240 | 15 | 6070 | 12 |  |  |  |  |  | 
16 | CCN1CCN(Cc2ccc(NC(=O)c3ccc(OC)c(NC(=O)c4cncc(-c5cccs5)c4)c3)cc2C(F)(F)F)CC1 | 1540 | 821 | 1.9 | 3240 | 2.1 | 5060 | 3.3 |  |  |  |  |  | 
17 | CCN1CCN(Cc2ccc(NC(=O)c3cc(Cl)cc(NC(=O)N4CCN(C)CC4)c3)cc2C(F)(F)F)CC1 | 1230 | 2120 | 0.6 | 14000 | 11 | 18800 | 15 |  |  |  |  |  | 
18 | CCN1CCN(Cc2ccc(NC(=O)c3cc(NC(=O)c4cncc(-c5cccs5)c4)ccc3F)cc2C(F)(F)F)CC1 | 981 | 491 | 2 | 6710 | 6.8 | 10800 | 11 |  |  |  |  |  | 
19 | CCN1CCN(Cc2ccc(NC(=O)c3cc(Cl)cc(NC(=O)c4cncc(-c5cncs5)c4)c3)cc2C(F)(F)F)CC1 | 56 | 74 | 0.8 | 6080 | 109 | 8140 | 145 | 52.1 | 13 |  |  |  | 
20 | CCN1CCN(Cc2ccc(NC(=O)c3cncc(NC(=O)c4cncc(-c5cccs5)c4)c3)cc2C(F)(F)F)CC1 | 76 | 70 | 1.1 | 2550 | 34 | 4710 | 62 | 19.1 | 36 |  |  |  | 
21 | CCN1CCN(Cc2ccc(NC(=O)c3cc(Cl)cc(NC(=O)c4cccc(-c5cccs5)c4)c3)cc2C(F)(F)F)CC1 | 253 | 196 | 1.3 | 5460 | 22 | 8360 | 33 |  |  |  |  |  | 
22 | CNC(=O)c1ccc(-c2cnc3cnc(C(=O)N(C)c4ccc(Cl)cc4)cn23)cc1 |  |  |  |  |  |  |  |  |  | 4.2 | 9.8 | 67.6 | 6
23 | C[C@@H]1CC[C@H]2[C@@H](C)C(=O)O[C@@H]3O[C@@]4(C)CC[C@@H]1[C@]32OO4 [ARTEMISININ] |  |  |  |  |  |  |  |  |  | 5.1 | 4 | 5.2 | 2.9
24 | O=C(NNC(=O)c1csnn1)c1ccc(Cl)cc1 |  |  |  |  |  |  |  |  |  | > 50000 | 174 | 106 | 182
25 | CCN1CCN(Cc2ccc(NC(=O)c3cc(Cl)cc(NC(=O)c4cncc(C#N)c4)c3)cc2C(F)(F)F)CC1 | 191 | 186 | 1 | 11000 | 58 | 7580 | 40 |  |  |  |  |  | 
26 | CCN1CCN(Cc2ccc(NC(=O)c3cc(Cl)cc(NCc4cncc(-c5cccs5)c4)c3)cc2C(F)(F)F)CC1 | 344 | 310 | 1.1 | 5590 | 16 | 8330 | 24 |  |  |  |  |  | 
27 | CCN1CCN(Cc2ccc(NC(=O)c3cc(Cl)cc(Nc4cncc(-c5cccs5)c4)c3)cc2C(F)(F)F)CC1 | 296 | 253 | 1.2 | 3620 | 12 | 5530 | 19 |  |  |  |  |  | 
28 | CCN1CCN(Cc2ccc(NC(=O)c3cc(Cl)cc(NC(=O)c4cncc(-c5cccs5)c4)c3)cc2)CC1 | 81 | 76 | 1.1 | 8770 | 108 | 10300 | 127 | 65.3 | 11 |  |  |  | 
29 | CCN1CCN(Cc2ccc(C(=O)Nc3cc(Cl)cc(NC(=O)c4cncc(-c5cccs5)c4)c3)cc2C(F)(F)F)CC1 | 104 | 73 | 1.4 | 9160 | 88 | 7030 | 68 |  |  |  |  |  | 
